The text below walks through data of ChEMBL document CHEMBL4371002 (J Med Chem, 2018).

Values after ≈ are worked out from the molar mass of the structure shown. Peptide text beside a SMILES is read from it. * marks the point of attachment. X3 = CC(C)[C@H](/C=C(\F)[C@H](C)N)C(=O)*

The target in one data set is T1, Parathyroid hormone/parathyroid hormone-related peptide receptor (Homo sapiens, UniProt Q03431).
T1 sequence (Q03431 whole entry): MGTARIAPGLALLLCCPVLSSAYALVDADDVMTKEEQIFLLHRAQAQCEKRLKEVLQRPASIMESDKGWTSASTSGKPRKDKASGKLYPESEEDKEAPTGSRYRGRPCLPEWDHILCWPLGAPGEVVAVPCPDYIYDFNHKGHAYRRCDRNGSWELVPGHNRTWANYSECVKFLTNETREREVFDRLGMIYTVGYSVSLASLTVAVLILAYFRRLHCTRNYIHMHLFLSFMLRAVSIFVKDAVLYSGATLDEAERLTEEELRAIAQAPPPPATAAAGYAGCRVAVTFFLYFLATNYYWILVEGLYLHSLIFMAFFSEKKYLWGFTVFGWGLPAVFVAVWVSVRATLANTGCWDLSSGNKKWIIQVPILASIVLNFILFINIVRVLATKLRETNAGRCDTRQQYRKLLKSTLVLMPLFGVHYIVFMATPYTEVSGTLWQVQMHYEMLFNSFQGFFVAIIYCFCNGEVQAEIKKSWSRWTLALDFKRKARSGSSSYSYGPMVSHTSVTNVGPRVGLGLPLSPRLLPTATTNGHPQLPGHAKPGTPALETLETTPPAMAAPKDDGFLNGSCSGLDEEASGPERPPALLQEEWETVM
Nature of the data set: biochemical.
Details: not given
`CC[C@H](C)[C@H](NC(=O)[C@H](CCC(=O)O)NC(=O)[C@H](CO)NC(=O)[C@@H](/C=C(\F)[C@H](C)N)C(C)C)C(=O)N[C@@H](CCC(N)=O)C(=O)N[C@@H](CC(C)C)C(=O)N[C@@H](CCSC)C(=O)N[C@@H](Cc1c[nH]cn1)C(=O)N[C@@H](CC(N)=O)C(=O)N[C@@H](CC(C)C)C(=O)NCC(=O)N[C@@H](CCCCN)C(=O)N[C@@H](Cc1c[nH]cn1)C(=O)N[C@@H](CC(C)C)C(=O)N[C@@H](CC(N)=O)C(=O)N[C@@H](CO)C(=O)N[C@@H](CCSC)C(=O)N[C@@H](CCC(=O)O)C(=O)N[C@@H](CCCN=C(N)N)C(=O)N[C@H](C(=O)N[C@@H](CCC(=O)O)C(=O)N[C@@H](Cc1c[nH]c2ccccc12)C(=O)N[C@@H](CC(C)C)C(=O)N[C@@H](CCCN=C(N)N)C(=O)N[C@@H](CCCCN)C(=O)N[C@@H](CCCCN)C(=O)N[C@@H](CC(C)C)C(=O)N[C@@H](CCC(N)=O)C(=O)N[C@@H](CC(=O)O)C(=O)N[C@H](C(=O)N[C@@H](Cc1c[nH]cn1)C(=O)N[C@@H](CC(N)=O)C(=O)N[C@@H](Cc1ccccc1)C(=O)N[C@H](C(=O)N[C@@H](C)C(N)=O)C(C)C)C(C)C)C(C)C` (X3-SEIQLMHNLGKHLNSMERVEWLRKKLQDVHNFVA-NH2): the Kd was 1.26 nM.

The next data set deals with Bacterial 70S ribosome.
Experiment: not given
Details: not given
The format is subcellular, Bacteria.
The compound `CC1=C\[C@@H](O)C[C@H](F)Cc2nc(co2)C(=O)N2CCC[C@@H]2C(=O)O[C@H](C(C)C)[C@H](C)/C=C/C(=O)NC\C=C\1` had a half-inhibitory concentration (IC50) of 500 nM.
The same measure, in the same setting: the value for `CC1=C\[C@@H](O)C[C@@H](O)Cc2nc(co2)C(=O)N2CCC[C@@H]2C(=O)O[C@H](C(C)C)[C@H](C)/C=C/C(=O)NC\C=C\1` was 50 nM; that for `CC1=C\[C@@H](O)CC(=O)Cc2nc(co2)C(=O)N2CCC[C@@H]2C(=O)O[C@H](C(C)C)[C@H](C)/C=C/C(=O)NC\C=C\1` [VOLPRISTIN] was 100 nM; that for `CC1=C\[C@@H](O)C[C@@H](F)Cc2nc(co2)C(=O)N2CCC[C@@H]2C(=O)O[C@H](C(C)C)[C@H](C)/C=C/C(=O)NC\C=C\1` was 60 nM.
Same read-out and setting: the value for `CC1=C\[C@@H](O)C[C@H](O)Cc2nc(co2)C(=O)N2CCC[C@@H]2C(=O)O[C@H](C(C)C)[C@H](C)/C=C/C(=O)NC\C=C\1` was 6000 nM.

In a further data set the target is Procathepsin L (Homo sapiens, UniProt P07711).
Sequence of Procathepsin L (P07711 whole entry): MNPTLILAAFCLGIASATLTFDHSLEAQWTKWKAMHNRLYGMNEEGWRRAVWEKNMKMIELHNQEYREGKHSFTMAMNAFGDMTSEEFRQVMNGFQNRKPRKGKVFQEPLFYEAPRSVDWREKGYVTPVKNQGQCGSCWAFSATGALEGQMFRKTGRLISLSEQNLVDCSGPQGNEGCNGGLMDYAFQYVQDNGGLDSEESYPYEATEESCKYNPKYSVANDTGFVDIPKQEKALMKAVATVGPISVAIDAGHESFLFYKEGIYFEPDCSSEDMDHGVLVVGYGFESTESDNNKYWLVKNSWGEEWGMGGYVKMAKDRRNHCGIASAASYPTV
Experiment: not given
Details: not given
Consider `N#Cc1nc(N2CCOCC2)nc(N(Cc2cc(F)ccc2F)C2CCCC2)n1`, for which the affinity corresponds to a Ki of 251 nM.
`N#Cc1nc(N2CCOCC2)nc(N(Cc2cccc(F)c2)C2CCCC2)n1` had a Ki of 200 nM.
On the same count and under the same terms, the same measure for `N#Cc1nc(N2CCOCC2)nc(N(Cc2ccc(F)cc2F)C2CCCC2)n1`: 126 nM; for `N#Cc1nc(N2CCOCC2)nc(N(Cc2ccncc2)C2CCCC2)n1`: 158 nM; for `N#Cc1nc(N2CCOCC2)nc(N(Cc2cccnc2)C2CCCC2)n1`: 100 nM.
In turn, `N#Cc1nc(N2CCOCC2)nc(N(Cc2c(F)cccc2F)C2CCCC2)n1` had a Ki of 100 nM.
As to `N#Cc1nc(N2CCOCC2)nc(N(Cc2cnccn2)C2CCCC2)n1`, affinity was put at a Ki of 158 nM.
`N#Cc1nc(N2CCOCC2)nc(N(Cc2ncccn2)C2CCCC2)n1` showed a Ki of 398 nM.
As for `N#Cc1nc(N2CCOCC2)nc(N(Cc2ccncn2)C2CCCC2)n1`, the Ki is 251 nM.
On the same count and under the same terms, the value for `N#Cc1nc(N2CCOCC2)nc(N(Cc2ccc(F)cc2)C2CCCC2)n1` was 501 nM.

In another data set the target is D(2) dopamine receptor (Homo sapiens) (UniProt P14416).
Sequence of D(2) dopamine receptor (Homo sapiens) (P14416 whole entry): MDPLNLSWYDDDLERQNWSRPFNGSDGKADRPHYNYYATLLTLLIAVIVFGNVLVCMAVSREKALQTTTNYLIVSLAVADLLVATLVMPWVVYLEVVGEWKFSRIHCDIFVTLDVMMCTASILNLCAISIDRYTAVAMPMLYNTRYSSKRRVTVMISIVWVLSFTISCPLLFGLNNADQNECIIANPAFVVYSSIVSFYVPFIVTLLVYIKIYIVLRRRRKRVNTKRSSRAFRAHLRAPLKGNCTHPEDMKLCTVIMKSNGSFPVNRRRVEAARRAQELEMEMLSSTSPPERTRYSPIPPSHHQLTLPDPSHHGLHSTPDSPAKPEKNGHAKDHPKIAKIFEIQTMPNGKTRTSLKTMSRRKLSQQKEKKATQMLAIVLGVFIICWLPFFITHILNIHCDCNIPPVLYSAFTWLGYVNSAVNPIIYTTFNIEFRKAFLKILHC
Experiment: not given
Details: not given
Regarding `Oc1nc2c3c(ccc2[nH]1)CCC(CNCc1ccccc1)O3` (stereo not drawn), the KiH stood at 0.14 nM.
As to `FC(F)(F)c1nc2c(OCCNCc3ccccc3)cccc2[nH]1`, the KiH is 0.18 nM.
Still for that read-out and setting: the same measure for `O=C1Cc2c(ccc3c2OC(CNCc2ccccc2)CC3)N1` (stereo not drawn): 0.37 nM.
On the same count and under the same terms, the same measure for `Oc1nc2c(OCCNCc3ccccc3)cccc2[nH]1`: 0.18 nM; for `c1ccc(CNCCOc2cccc3[nH]cnc23)cc1`: 9.8 nM.
The same measure, in the same setting: the value for `Cc1nc2c(OCCNCc3ccccc3)cccc2[nH]1` was 4.4 nM.
In the case of `FC(F)(F)c1nc2c3c(ccc2[nH]1)CCC(CNCc1ccccc1)O3` (stereo not drawn), the KiH was determined as 5.75 nM.

Another data set addresses T2, 5-hydroxytryptamine receptor 1A (Homo sapiens, UniProt P08908).
T2 sequence (P08908 whole entry): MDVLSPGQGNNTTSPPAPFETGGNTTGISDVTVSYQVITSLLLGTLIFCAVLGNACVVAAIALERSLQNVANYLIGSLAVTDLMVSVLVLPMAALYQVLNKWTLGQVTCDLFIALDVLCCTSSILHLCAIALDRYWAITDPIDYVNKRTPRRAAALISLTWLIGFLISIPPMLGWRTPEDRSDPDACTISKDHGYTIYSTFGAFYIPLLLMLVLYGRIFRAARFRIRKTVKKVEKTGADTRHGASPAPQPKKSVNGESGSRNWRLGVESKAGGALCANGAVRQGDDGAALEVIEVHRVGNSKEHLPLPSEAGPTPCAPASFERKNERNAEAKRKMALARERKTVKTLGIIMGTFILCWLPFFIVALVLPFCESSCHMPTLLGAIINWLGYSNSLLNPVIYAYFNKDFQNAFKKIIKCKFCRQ
Experiment: not given
In kind it is functional, cell-based, CHO.
Details: not given
The compound `Clc1ccc2[nH]cc(CCCCN3CCN(c4ccc5c(c4)OCCO5)CC3)c2c1` gave an IC50 of 40 nM.
On to `c1ccc2c(CCCCN3CCN(c4ccc5c(c4)OCCO5)CC3)c[nH]c2c1`, for which the half-maximal inhibitory concentration (IC50) stood at 8 nM.
With `N#Cc1ccc2[nH]cc(CCCCN3CCN(c4ccc5c(c4)OCO5)CC3)c2c1`, the IC50 was 0.7 nM.
The same measure, in the same setting: the value for `Fc1ccc2[nH]cc(CCCCN3CCN(c4ccc5c(c4)OCO5)CC3)c2c1` was 4 nM.
On the same count and under the same terms, the value for `Fc1ccc2[nH]cc(CCCCN3CCN(c4ccc5c(c4)OCCO5)CC3)c2c1` was 5 nM; that for `N#Cc1ccc2[nH]cc(CCCCN3CCN(c4ccc5c(c4)OCCO5)CC3)c2c1` was 1 nM; that for `NC(=O)c1cc2cc(N3CCN(CCCCc4c[nH]c5ccc(F)cc45)CC3)ccc2o1` was 3 nM.

System in another data set: not listed separately
Briefly: physchem.
Details: not given
For the compound `NCc1cc(F)c(O)c(F)c1`, the pKa came to 7.12.
Still for that read-out and setting: the same measure for `NCc1ccc(F)c(O)c1F`: 9.81.

The subject of the next data set is Plasmodium berghei. Nature of the data set: microbe, parasite or virus in culture. In kind it is functional, organism-based.
Details: not given
`C[C@@H]1CC[C@H]2[C@@H](C)C(=C(F)F)O[C@@H]3O[C@@]4(C)CC[C@@H]1[C@]32OO4`: the IC50 is 20 nM. That is a double-digit nanomolar value.
`C[C@@H]1CC[C@H]2[C@@H](C)C(=O)O[C@@H]3O[C@@]4(C)CC[C@@H]1[C@]32OO4` [ARTEMISININ]: half-maximal inhibition (IC50) was put at 8.9 nM and it took 14.5 nM to reach the 90% level (IC90).
Regarding `CC1=C(C(F)(F)F)O[C@@H]2O[C@@]3(C)CC[C@H]4[C@H](C)CC[C@@H]1[C@@]24OO3`, 4.6 nM corresponded to half-maximal inhibition (IC50) and the IC90 came to 7.3 nM.

In another data set the target is T1, Parathyroid hormone/parathyroid hormone-related peptide receptor.
Experiment: not given
Details: not given
As to `CC[C@H](C)[C@H](NC(=O)[C@H](CCC(=O)O)NC(=O)[C@H](CO)NC(=O)[C@@H](/C=C(\F)[C@H](C)N)C(C)C)C(=O)N[C@@H](CCC(N)=O)C(=O)N[C@@H](CC(C)C)C(=O)N[C@@H](CCSC)C(=O)N[C@@H](Cc1c[nH]cn1)C(=O)N[C@@H](CC(N)=O)C(=O)N[C@@H](CC(C)C)C(=O)NCC(=O)N[C@@H](CCCCN)C(=O)N[C@@H](Cc1c[nH]cn1)C(=O)N[C@@H](CC(C)C)C(=O)N[C@@H](CC(N)=O)C(=O)N[C@@H](CO)C(=O)N[C@@H](CCSC)C(=O)N[C@@H](CCC(=O)O)C(=O)N[C@@H](CCCN=C(N)N)C(=O)N[C@H](C(=O)N[C@@H](CCC(=O)O)C(=O)N[C@@H](Cc1c[nH]c2ccccc12)C(=O)N[C@@H](CC(C)C)C(=O)N[C@@H](CCCN=C(N)N)C(=O)N[C@@H](CCCCN)C(=O)N[C@@H](CCCCN)C(=O)N[C@@H](CC(C)C)C(=O)N[C@@H](CCC(N)=O)C(=O)N[C@@H](CC(=O)O)C(=O)N[C@H](C(=O)N[C@@H](Cc1c[nH]cn1)C(=O)N[C@@H](CC(N)=O)C(=O)N[C@@H](Cc1ccccc1)C(=O)N[C@H](C(=O)N[C@@H](C)C(N)=O)C(C)C)C(C)C)C(C)C` (X3-SEIQLMHNLGKHLNSMERVEWLRKKLQDVHNFVA-NH2), the EC50 was 4.4 nM.

In a further data set the target is Prothrombin (Homo sapiens, UniProt P00734).
Experiment: not given
Details: not given
`N=C(N)c1ccc([C@H]2[C@H]3C(=O)N(Cc4cccc(F)c4F)C(=O)[C@H]3[C@@H]3CCCN32)cc1` yielded an inhibition constant (Ki) of 490 nM.
On the same count and under the same terms, the value for `N=C(N)c1ccc([C@H]2[C@H]3C(=O)N(Cc4cccc(F)c4)C(=O)[C@H]3[C@@H]3CCCN32)cc1` was 360 nM.
`N=C(N)c1ccc([C@H]2[C@H]3C(=O)N(Cc4ccccc4F)C(=O)[C@H]3[C@@H]3CCCN32)cc1`: the Ki stood at 500 nM. The Ki values of the last two compounds are within 1.5-fold of each other.
The same measure, in the same setting: the value for `N=C(N)c1ccc([C@H]2[C@H]3C(=O)N(Cc4ccc(F)cc4F)C(=O)[C@H]3[C@@H]3CCCN32)cc1` was 260 nM; that for `N=C(N)c1ccc([C@H]2[C@H]3C(=O)N(Cc4ccc(Cl)cc4)C(=O)[C@H]3[C@@H]3CCCN32)cc1` was 190 nM.

In another data set the test system is Staphylococcus hominis. Briefly: microbe, parasite or virus in culture. The format is functional. The conditions noted are these: IP8203.
In turn, `CC1=C\[C@@H](O)C[C@H](F)Cc2nc(co2)C(=O)N2CCC[C@@H]2C(=O)O[C@H](C(C)C)[C@H](C)/C=C/C(=O)NC\C=C\1` showed an MIC of 8 µg/mL (≈ 15 µM).
The compound `CC1=C\[C@@H](O)C[C@@H](O)Cc2nc(co2)C(=O)N2CCC[C@@H]2C(=O)O[C@H](C(C)C)[C@H](C)/C=C/C(=O)NC\C=C\1` returned an MIC of 1 µg/mL (≈ 1.89 µM).
The same measure, in the same setting: the value for `CC1=C\[C@@H](O)CC(=O)Cc2nc(co2)C(=O)N2CCC[C@@H]2C(=O)O[C@H](C(C)C)[C@H](C)/C=C/C(=O)NC\C=C\1` [VOLPRISTIN] was 4 µg/mL (≈ 7.58 µM); that for `CC1=C\[C@@H](O)C[C@@H](F)Cc2nc(co2)C(=O)N2CCC[C@@H]2C(=O)O[C@H](C(C)C)[C@H](C)/C=C/C(=O)NC\C=C\1` was 0.25 µg/mL (≈ 0.47 µM).
Same read-out and setting: the value for `CC1=C\[C@@H](O)C[C@H](O)Cc2nc(co2)C(=O)N2CCC[C@@H]2C(=O)O[C@H](C(C)C)[C@H](C)/C=C/C(=O)NC\C=C\1` was 32 µg/mL (≈ 60.4 µM).

A word on the Kd: it is the equilibrium constant for the complex coming apart. Broadly, the IC50 is the concentration that inhibits the measured activity by half. Usually Ki stands for the dissociation constant of the complex between target and ligand, obtained from inhibition or displacement. The low end stands for a stronger hold on the target, the high end for a looser hold on the target. As a reminder, the pKa is the pH at which an ionisable group is half protonated. The low end stands for a stronger acid or weaker base, the high end for a weaker acid or stronger base. A word on the IC90: it is the point of the concentration-response curve where the effect stands at 90%. Low readings indicate an effect from little substance, high ones a need for much substance. The term EC50 denotes the midpoint of the concentration-response curve.
